Like-named read-outs stand apart in the source and are kept apart here.
Legend:
mouse = assay: Acute toxicity (DL50) in the mouse; assay type: in vivo
From the text: In particular, the DL50 in the mouse in greater than 2.5 g/kg/os and 1.00 g/kg/i.p.

rabbits = details: rabbit, in vivo
rats = details: rat, in vivo
rabbit = assay: Local tolerability of injections; assay type: in vivo
[1] = in vivo, 4.2 mg/kg; for Distribution of SAM in rat tissues: Hypophysis / Distribution of SAM in rat tissues: Hypothalamus / Distribution of SAM in rat tissues: Liver / Distribution of SAM in rat tissues: Plasma / Distribution of SAM in rat tissues: Rind / Distribution of SAM in rat tissues: Spleen / Distribution of SAM in rat tissues: Suprarenal glands: iv
Procedure: In order to indicatively determine how SAM is distributed in the tissues, S-Adenosilmethionine (Methyl C^14) was prepared. The distribution of this product in rats was studied by administering a dose of 4.2 mg/kg/e.v. equal to approxymately 10 μci of radioactive product. The specific activity of the product was 58 mCi/m moles.

[2] = mouse, in vivo
From the text: Parallel with this, an autoradiographic study was made on the mouse.

hepatic steatosis = assay: Hepatic steatosis models in rats (Handler diet, acute alcoholic intoxication, toxic agents); assay type: in vivo, rat
From the text: (§1) This was confirmed by subsequent pharmacological tests.

hepatic phospholipids = assay: Hepatic phospholipids in rats after intoxication with CCl4; assay type: in vivo, rat
From the text: as §1
Hepatic phospholipids in rats after intoxication with CCl4 and treatment with SAM.
The values are the averages ± E.S. of 10 values for each group. In studying the hepatoprotective activity we have used an experimental device which produces in the rat the so-called hepatic cholesterol degeneration (Ridout and Coll., Biochem. J. 52, 99, 1952).

edema by carragenine = assay: Edema by carragenine (acute inflammation); assay type: in vivo; details: orally 8 to 40 mg/kg; parenterally 4 to 8 mg/kg; in comparison with Ibuprofen, Indometacina
From the text: (§2) Of the various tests we shall mention the most classic, namely the edema by carragenine and by egg white as a test for acute inflammation; and granuloma by cotton pellets and arthritis by adjuvant as a test for chronic inflammation. […] The analgesia tests were in the form of the hot plate test and stretching by acetic acid, and the Randal and Selitto test in the rat.

edema by egg white = assay: Edema by egg white (acute inflammation); assay type: in vivo; details: orally 8 to 40 mg/kg; parenterally 4 to 8 mg/kg; in comparison with Ibuprofen, Indometacina
From the text: as §2

[3] = system: granuloma by cotton pellets; assay: Granuloma by cotton pellets (chronic inflammation); assay type: in vivo; details: orally 8 to 40 mg/kg; parenterally 4 to 8 mg/kg; in comparison with Ibuprofen, Indometacina
From the text: as §2

arthritis by adjuvant = assay: Arthritis by adjuvant (chronic inflammation); assay type: in vivo; details: orally 8 to 40 mg/kg; parenterally 4 to 8 mg/kg; in comparison with Ibuprofen, Indometacina
From the text: as §2

[4] = system: stretching by acetic acid; assay: Stretching by acetic acid analgesia test; assay type: in vivo; details: in comparison with known drugs studied
From the text: as §2

Randal and Selitto test = assay: Randal and Selitto analgesia test in the rat; assay type: in vivo; details: in comparison with known drugs studied
From the text: as §2

[5] = system: sleeping time induced by hexobarbital; assay: Hexobarbital sleeping time in mice (Holten and Larsen); assay type: in vivo
Procedure: A further aspect considered by us was the possible action of SAM on the sleeping time by barbiturates.
For this purpose an experiment was carried out in which groups of mice received hexobarbital in a dose of 80 mg/kg/i.p. in accordance with the method of Holten and Larsen (Acta Pharmacol. Toxicol. 1956, 12, 346); one group was the control group and the second received SAM in a dose of 4 mg/kg/i.p. (table).

[6] = system: clear arteriosclerosis with clinical manifestations of the psycho-affective sphere; assay: Clinical tests: arteriosclerosis, hypoxydotic states, post-apoplectic syndromes; assay type: in vivo, human
[7] = system: subjects with hypoprotidemias, disprotidemias, chronic hepatopathias, precyrrotic and cyrrotic states, malabsorption and protide dispersing syndromes; assay: Clinical tests: hypoprotidemias, chronic hepatopathias, cyrrotic states, malabsorption; assay type: in vivo, human; details: 20 to 80 mg per day, intermuscular, intravenous or oral
Procedure: 2. Hundreds of subjects were treated clinically affected with: secondary hypoprotidemias and disprotidemias; persistent and aggressive chronic hepatopathias; precyrrotic and cyrrotic states; malabsorption syndromes, and protide dispersing syndromes.

depressive forms = assay: Clinical tests: depressive forms (tests of Hamilton and Wittenberg); assay type: in vivo, human; details: 8 to 20 mg 3-4 times per day, 5-15 days, no other therapy
[8] = system: Parkinsons disease and Parkinsonisms; assay: Clinical tests: Parkinsons disease and Parkinsonisms, with Levodopa; assay type: in vivo, human

## C[S+](CC[C@H](N)C(=O)O)C[C@H]1O[C@@H](n2cnc3c(N)ncnc32)[C@H](O)[C@@H]1O (stereo partly drawn) [SAM, S-Adenosil-L-Methionine]
mouse; i.p.
  DL50 in the mouse: > 1.00 g/kg
mouse; os
  DL50 in the mouse: greater than 2.5 g/kg
rabbits
  teratogenic actions or malformations: no teratogenic actions were encountered or any malformations
rats
  teratogenic actions or malformations: no teratogenic actions were encountered or any malformations
rabbit; intramuscular, even repeated over 180 days
  local tolerability of the intramuscular injection: excellent
rabbit; intravenous, marginal vein of the auricular pavilion of the rabbit
  local tolerability of the intravenous injection: excellent
[1]; 0.25 h
  Distribution of SAM in rat tissues: Hypophysis: 2.3 μgr/gr
  Distribution of SAM in rat tissues: Hypothalamus: 0.3 μgr/gr
  Distribution of SAM in rat tissues: Liver: 1.7 μgr/gr
  Distribution of SAM in rat tissues: Plasma: 7.5 μgr/gr
  Distribution of SAM in rat tissues: Rind: 0.25 μgr/gr
  Distribution of SAM in rat tissues: Spleen: 1.3 μgr/gr
  Distribution of SAM in rat tissues: Suprarenal glands: 1.9 μgr/gr
[1]; 1 h
  Distribution of SAM in rat tissues: Hypophysis: 2.5 μgr/gr
  Distribution of SAM in rat tissues: Hypothalamus: 0.65 μgr/gr
  Distribution of SAM in rat tissues: Liver: 3.0 μgr/gr
  Distribution of SAM in rat tissues: Plasma: 2.1 μgr/gr
  Distribution of SAM in rat tissues: Rind: 0.45 μgr/gr
  Distribution of SAM in rat tissues: Spleen: 1.2 μgr/gr
  Distribution of SAM in rat tissues: Suprarenal glands: 3.4 μgr/gr
[1]; 4 h
  Distribution of SAM in rat tissues: Hypophysis: 8.0 μgr/gr
  Distribution of SAM in rat tissues: Hypothalamus: 1.0 μgr/gr
  Distribution of SAM in rat tissues: Liver: 5.5 μgr/gr
  Distribution of SAM in rat tissues: Plasma: 2.3 μgr/gr
  Distribution of SAM in rat tissues: Rind: 0.75 μgr/gr
  Distribution of SAM in rat tissues: Spleen: 3.5 μgr/gr
  Distribution of SAM in rat tissues: Suprarenal glands: 4.8 μgr/gr
[1]; 8 h
  Distribution of SAM in rat tissues: Hypophysis: 4.5 μgr/gr
  Distribution of SAM in rat tissues: Hypothalamus: 1.3 μgr/gr
  Distribution of SAM in rat tissues: Liver: 5.6 μgr/gr
  Distribution of SAM in rat tissues: Plasma: 2.0 μgr/gr
  Distribution of SAM in rat tissues: Rind: 8.5 μgr/gr
  Distribution of SAM in rat tissues: Spleen: 2.6 μgr/gr
  Distribution of SAM in rat tissues: Suprarenal glands: 4.5 μgr/gr
[1]; 24 h
  Distribution of SAM in rat tissues: Hypophysis: 4.2 μgr/gr
  Distribution of SAM in rat tissues: Hypothalamus: 1.3 μgr/gr
  Distribution of SAM in rat tissues: Liver: 5.7 μgr/gr
  Distribution of SAM in rat tissues: Plasma: 1.1 μgr/gr
  Distribution of SAM in rat tissues: Rind: 9.4 μgr/gr
  Distribution of SAM in rat tissues: Spleen: 2.8 μgr/gr
  Distribution of SAM in rat tissues: Suprarenal glands: 4.4 μgr/gr
[1]; rat
  distribution to tissues: distributed very rapidly to all the tissues
[2]
  distribution to tissues: distributed very rapidly to all the tissues
Hepatic steatosis
  accumulation of lipids at the hepatocite level: significantly reduces
Hepatic phospholipids
  restoration of normal levels of phospholipids: favours the restoration of normal levels of phospholipids
Edema by carragenine
  anti-inflammatory activity: active
Edema by egg white
  anti-inflammatory activity: active
[3]
  anti-inflammatory activity: active
Arthritis by adjuvant
  anti-inflammatory activity: active
[4]
  analgesic activity: active
Randal and Selitto test
  analgesic activity: active
[5]
  prolonging the sleeping time induced by hexobarbital: active in prolonging the sleeping time
[6]; intermuscular, intravenous or slow phleboclysis, 8 to 16 mg 3-4 times per day
  symptomatology in arteriosclerosis: a very favourable modification of the symptomatology
[6]; post-apoplectic syndromes
  improvement of the clinical framework in post-apoplectic syndromes: a greater rapidity was found in the improvement
[7]
  albumin level: an increase in the albumin level
  percentage ratios between the electrophoretic fractions of the serum: a tendency to normalise
  subjective symptomology and general objective conditions: often very important improvement
  tests of hepatic functionality: normalising of all the tests of hepatic functionality
  total protidemia: a statistically significant increase
Depressive forms
  remission of main parameters of depressive forms: a significant remissione of the main parameters
[8]; 4-16 mg per day with Levodopa, vs patients treated only with Levodopa
  akinesia and rigidity: a statistically more significant improvement
[8]; SAM in association with Levodopa
  extent of the Parkinson tremor: Favourable modifications
[8]; depressive states and psychic manifestations of irritative type
  Levodopa dependent psychic disturbances: distinctly improves
[8]; nausea, vomit, inappetite, hypotension, asthenia, cephalea, hypersudoration, insomnia, 4-16 mg per day
  Levodopa side effects: significantly blocks
